Molecules are shown by their SMILES. Like-named read-outs stand apart in the source and are kept apart here.

The results in this text go back to patent US9149038B2, “4-amino-6-(heterocyclic)picolinates and 6-amino-2-(heterocyclic)pyrimidine-4-carboxylates and their use as herbicides” (Dow AgroSciences LLC, priority 2013, dated 2015).

For data set [1], the system named is Key Broadleaf and Grass Weed as well as Crop Species. Nature of the data set: Post-Emergent Test I: postemergent herbicidal activity, visual phytotoxicity rating 10 days after treatment (Table 5). Type of data set: in vivo. Particulars: 4 kg ai/ha; for Visual Growth Reduction (%) 10 Days After Application ECHCG: barnyardgrass (Echinochloa crus-galli); for pest or weed control at 4000 g/ha: post-emergence, 240 h, 10 days after application. As for the experimental part:
Herbicidal evaluations were made visually on a scale of 0 to 100 where 0 represents no activity and 100 represents complete plant death. Post-Emergent Test I: Seeds of test species were obtained from commercial suppliers and planted into a 5″-round pot containing soil-less media mix (Metro-Mix 360®, Sun Gro Horticulture). Postemergence treatments were planted 8-12 days (d) prior to application and cultured in a greenhouse equipped with supplemental light sources to provide a 16 h photoperiod at 24-29° C. All pots were surface irrigated. Approximately 10 milligrams (mg) of each compound were dissolved in 1.3 mL acetone-DMSO (97:3, volume per volume (v/v)) and diluted with 4.1 mL water-isopropanol-crop oil concentrate (78:20:2, v/v/v) containing 0.02% Triton X-155. Treatments were serial diluted with the above formulation solvent to provide 1.85, 0.926, 0.462 and 0.231 milligrams per milliliter (mg/mL) of test compound delivered in 2.7 mL/pot (roughly equivalent to 4.0, 2.0, 1.0, and 0.5 kg/ha, respectively). Formulated compounds were applied using a DeVilbiss® compressed air sprayer at 2-4 pounds per square inch (psi). Following treatment, pots were returned to the greenhouse for the duration of the experiment. All pots were sub-irrigated as needed to provide optimum growing conditions. All pots were fertilized one time per week by subirrigating with Peters Peat-Lite Special® fertilizer (20-10-20). Phytotoxicity ratings were obtained 10 days after treatment postemergence applications. All evaluations were made visually on a scale of 0 to 100 where 0 represents no activity and 100 represents complete plant death and are presented as indicated in Table 4.

Setting [2] is: giant foxtail (Setaria faberi), read-out: Visual Growth Reduction (%) 10 Days After Application SETFA.
Setting [3] is: ivyleaf morningglory (Ipomoea hederecea), read-out: Visual Growth Reduction (%) 10 Days After Application IPOHE.
Setting [4] is: sunflower (Helianthus annuus), read-out: Visual Growth Reduction (%) 10 Days After Application HELAN.
Where [5] appears, read: wild oats (Avena fatua), read-out: Visual Growth Reduction (%) 10 Days After Application AVEFA.

By melting point is commonly meant the temperature of the solid-liquid transition. `COC(=O)c1nc(-c2cc3c(cc2F)OC(F)(F)O3)c(C)c(N)c1Cl` [Compound 50] showed a melting point of 162 to 165 °C.

In turn, `COc1cc2c(cc1-c1cc(N)c(Cl)c(C(=O)O)n1)OC(F)(F)O2` [Compound 39] returned a melting point of 165 to 166 °C.

`Cc1c(-c2cc3c(cc2F)OC(F)(F)O3)nc(C(=O)O)c(Cl)c1N` [Compound 51]: the “Visual Growth Reduction (%) 10 Days After Application ECHCG” value in data set [1] is given as “G (0-29)”. The pest or weed control at 4000 g/ha in data set [1] (setting [2]) lay in the range of 0 to 29%; in data set [1] (setting [3]) it was 0 to 29%; in data set [1] (setting [4]), 60 to 74%; in data set [1] (setting [5]), 0 to 29%.

`COC(=O)c1nc(-c2ccc3c(c2F)OC(F)(F)O3)c(C)c(N)c1Cl` [Compound 53] returned a melting point of 153.5 to 155 °C.

In turn, `COC(=O)c1nc(-c2cc(F)c3c(c2)OC(F)(F)O3)cc(N)c1Cl` [Compound 43] had a melting point of 176 to 177 °C.

In the case of `C=Cc1c(C(=O)OC)nc(-c2ccc3c(c2)OC(F)(F)O3)c(F)c1N` [Compound 29], the melting point fell in the range of 112 to 114 °C.

On to `Nc1cc(-c2cccc3c2OC(F)(F)O3)nc(C(=O)O)c1Cl` [Compound 85], for which the melting point was found to be 170 °C.

Turning to `Cc1c(-c2ccc3c(c2F)OC(F)(F)O3)nc(C(=O)O)c(Cl)c1N` [Compound 54], in data set [1], the “Visual Growth Reduction (%) 10 Days After Application ECHCG” value was “G (0-29)”. Besides, the pest or weed control at 4000 g/ha in data set [1] (setting [2]) is 0 to 29%; in data set [1] (setting [3]), 0 to 29%; in data set [1] (setting [4]), 60 to 74%; in data set [1] (setting [5]), 0 to 29%.

Compound `COC(=O)c1nc(-c2ccc3c(c2F)OC(F)(F)O3)nc(N)c1OC` [Compound 65] showed a melting point of 109 to 111 °C.
